The values below are quoted from earlier work in US20200123146A1, “HETEROCYCLIC INTEGRIN AGONISTS” (GB006, Inc., priority 2016, published 2020).

One data set has as its system tumor. Particulars: in vivo; cited from earlier work.
For data set [1] the following is noted: in vivo; cited from earlier work.
The conditions of data set [2]: upon vascular injury in rats; cited from earlier work.
In another data set the test system is leukocytes. Conditions: acute peritonitis in mice; cited from earlier work.
For data set [3] the following is noted: in vivo; cited from earlier work. This is another data set of the same source.
The conditions of data set [4]: in vivo; cited from earlier work. The source holds these as a separate data set.
For data set [5] the following is noted: in vivo; cited from earlier work. This is another data set of the same source.
For data set [6] the following is noted: mice; cited from earlier work.

As to `O=C(O)c1ccc(-c2ccc(/C=C3\SC(=S)N(Cc4ccccc4)C3=O)o2)cc1` [LA1, (Z)-4-(5-((3-benzyl-4-oxo-2-thioxothiazolidin-5-ylidene)methyl)furan-2-yl)benzoic acid], in the data set on tumor, the “tumor growth and re-growth” value is “reduced tumor growth and re-growth”. The liver repair result in data set [1] is listed as “enhance liver repair”. For the same compound, the neointimal thickening result in data set [2] is “reduce neointimal thickening”. Also, the recruitment of leukocytes entry in the data set with leukocytes is reported as “reduce recruitment of leukocytes”. In data set [3], the allograft survival result was “increase allograft survival”. Moreover, the hyperoxia-dependent lung injury entry in data set [4] is “reduce hyperoxia-dependent lung injury”. The liver fibrosis entry in data set [5] is on record as “reduce liver fibrosis”. Also, in data set [6], the renal ischemia/reperfusion injury result is “reduce renal ischemia/reperfusion injury”.
